Results published in publication PMC6523311, “Synthesis and Biological Evaluation of RGD–Cryptophycin Conjugates for Targeted Drug Delivery” (Pharmaceutics, 2019).

Key:
[1] = tested on: M21 human melanoma cells (αvβ3+); assay: MTT in vitro cytotoxicity assay, M21; type: cell-based; settings: for IC50: Homo sapiens, MTT, 2 h treatment and additional 70 h incubation
Procedure: (§1) The human melanoma M21 and M21-L cells were kindly provided by Dr. David Cheresh and The Scripps Research Institute (La Jolla, CA, USA). Cells were cultured in RPMI 1640 supplemented with 10% fetal bovine serum (FBS), 1% L-glutamine and 1% Penicillin/Streptomycin in a humidified incubator at 37 °C and 5% CO2.
(§2) Cell viability was quantified by 3-(4,5-dimethylthiazol-2-yl)-2,5-diphenyltetrazolium bromide (MTT) assay. Cells were plated at a density of 3000 cells/well (Nunc® MicroWell® flat-bottom 96-well plate, Thermo Fisher Scientific) and incubated overnight to allow adherence. The following day, cells were treated with serial dilutions of each compound or 0.1% DMSO as control. After 2 h of incubation, cells were centrifuged at 1200 rpm for 5 min; supernatant containing the compounds was removed and replaced with fresh medium. Cells were further incubated for 70 h as described above, and at the end of treatment, 5 µL of MTT (5 mg/mL in deionized H2O, #M5655, Sigma Aldrich) were added to each well and the cells incubated for another 2 h. Finally, 100 µL of lysis buffer (10% SDS, 10 mM HCl) were added, and cells were placed in the incubator overnight for the formazan crystal solubilization. Absorbance at 540 nm was measured using FLUOstar Omega (BMG Labtech, Ortenberg, Germany) instrument and the growth inhibition ratio was calculated. Blank controls detecting cell-free media absorbance were performed in parallel. Three experimental replicates were used. The half-maximal inhibitory concentration values (IC50) were obtained from viability curves by fitting data to the four-parameter logistic equation using GraphPad Prism 6 (GraphPad Software, San Diego, CA, USA). The cell viability was expressed as percentage relative to the respective control conditions.

[2] = tested on: M21-L human melanoma cells (αv-, αvβ3-); assay: MTT in vitro cytotoxicity assay, M21-L; type: cell-based; settings: 2 h treatment and additional 70 h incubation
Procedure: as §1, §2

[3] = plasma metabolic stability assay, mouse plasma; type: in vitro ADME; settings: 24 h
Procedure: (§3) The sample preparation and the metabolic analysis of the conjugates was carried out similarly to a previously described method. In a 96-well plate, the stock solutions (3 mM in dimethyl sulfoxide (DMSO)) of the conjugates and the control compound were diluted with 250 μL of plasma (pooled heparinized mouse ICR/CD1 M plasma #08 or human plasma #MPLLIHP-M, #BHR1003077, BioreclamationIVT, Westbury, NY, USA) to give a 3-µM concentration and incubated at 37 °C. At each sampling time an aliquot of 30 µL was transferred into a 96-deep-well plate and the reaction was stopped with 120 µL of acetonitrile (ACN) containing 0.1% HCOOH and 400 ng/mL of warfarin as internal standard (IS). This mixture was centrifuged at 1100× g for 30 min at 4 °C and 50 µL of supernatants were transferred into a clean 96-deep-well plate and diluted with 50 µL of 0.1% HCOOH in water. Samples were stored at −80 °C prior to UPLC-HRMS analysis (see Supplementary Materials). The stability was determined based on the disappearance of the test compound as a function of incubation time, using area ratios (analyte peak area vs internal standard peak area). The elimination constant k was calculated by plotting mean disappearance values on a semi-logarithmic scale and fitting with a best fit linear regression using Microsoft Excel. The half-life (t1/2) expressed in hours was determined using equation: t1/2 = ln2/(−k). […]

[4] = plasma metabolic stability assay, human plasma; type: in vitro ADME; settings: 24 h
Procedure: as §3

human αvβ3 integrin = biological target: T1, human αvβ3 integrin (Homo sapiens, UniProt P05106+P06756, DEL719-788); assay: competitive ELISA-like integrin binding assay (immobilized vitronectin, soluble integrin); settings: competition with immobilized vitronectin
T1 construct: purchased R&D Systems 3050-AV-050

[5] = biological target: T2, bovine spleen cathepsin B (Bos taurus, UniProt P07688); assay: cathepsin B cleavage assay; type: in vitro ADME; settings: cathepsin B 1 U/mL, 37 °C, pH 5.5, 5 µM substrate
T2 construct: cathepsin B (bovine spleen cathepsin B, #C6286, Sigma Aldrich); purchased Sigma Aldrich C6286; host or cells: bovine spleen
Procedure: L-cysteine (#C8152, Sigma Aldrich) was dissolved in acetate buffer/ethylenediaminetetraacetic acid (EDTA) 1 mM pH 5.5 to get a solution with a final concentration of L-cysteine of 28 mM. This solution was used to dilute an aliquot of cathepsin B (bovine spleen cathepsin B, #C6286, Sigma Aldrich) to 1.11 U/mL. Sample containing cathepsin B was pre-incubated at 37 °C for 15 min and then split into 45-µL aliquots in Eppendorf tubes, two replicates for each incubation time. Aliquots of 5 µL of 50 µM solutions of the substrates prepared in MeOH/H2O (50/50) were added to each tube, to get a final concentration of 5 µM. Tubes corresponding to t = 0 min contained 100 µL of 1% HCOOH in MeOH and were put in an ice bath to stop the reaction. All the other tubes were incubated at 37 °C in an oscillating thermostatic bath and reaction was stopped at the following incubation times: 0.25, 0.5, 1, 2, 4, and 6 h, as described for t = 0 min samples. Samples were centrifuged for 10 min at 14,000 rpm at 4 °C and filtered with regenerated cellulose syringe filters prior to injection in the HPLC-MS system (see Supplementary Materials). […] Substrates and possible metabolites were quantified based on calibration curves prepared in acetate buffer/EDTA/L-cysteine.

Row | SMILES | IC50 [1] [nM] | fold higher biological activity than cryptophycin-55 glycinate ([1]; M21 and M21-L cells, same test conditions) | IC50 [2] [nM] | stability in mouse plasma [3] | stability in human plasma [4] | IC50 (human αvβ3 integrin) [nM] | cleavage and metabolism upon incubation with cathepsin B [5]
1 | COc1ccc(C[C@H]2NC(=O)/C=C/C[C@@H]([C@H](C)[C@H]3O[C@@H]3c3ccccc3)OC(=O)[C@H](CC(C)C)OC(=O)C(C)(C)CNC2=O)cc1Cl [compound 2, cryptophycin-52, reference compound] | 0.07 | 10-20 fold | 0.02 | significant metabolism | – | – | –
2 | COc1ccc(C[C@H]2NC(=O)/C=C/C[C@@H]([C@H](C)[C@@H](OC(=O)CN)[C@@H](Cl)c3ccccc3)OC(=O)[C@H](CC(C)C)OC(=O)C(C)(C)CNC2=O)cc1Cl [compound 4, Cryptophycin-55 glycinate] | 0.75 ± 0.11 | – | 0.14 ± 0.08 | markedly improved stability compared to the parent compound | good stability | – | –
3 | [N-]=[N+]=NCCC(=O)NCCCC[C@@H]1NC(=O)[C@@H](Cc2ccccc2)NC(=O)[C@H](CC(=O)O)NC(=O)CNC(=O)[C@H](CCCNC(=N)N)NC1=O [compound 9] | – | – | – | – | – | 0.71 | –
4 | COc1ccc(C[C@H]2NC(=O)/C=C/C[C@@H]([C@H](C)[C@@H](OC(=O)CNC(=O)[C@@H]3CCCN3C(=O)CN)[C@@H](Cl)c3ccccc3)OC(=O)[C@H](CC(C)C)OC(=O)C(C)(C)CNC2=O)cc1Cl [compound 12, Gly-Pro-Cry-55gly] | 0.15 ± 0.03 | – | 0.039 ± 0.01 | – | – | – | not further metabolized to cryptophycin-55 glycinate
